Measured values from publication PMC8534050, “Discovery of a Potent and Highly Isoform-Selective Inhibitor of the Neglected Ribosomal Protein S6 Kinase Beta 2 (S6K2)” (Cancers, 2021).

Key:
Experiment in all cases: DSF thermal shift assay
Assay type in all cases: binding
[1] = molecular target: T1, STK10 (Homo sapiens, UniProt O94804); conditions: STK10; inhibitor 10 μM, protein 2 μM; read-out: ΔTm
T1 construct: purchased in-house DSF (thermal shift) panel per Fedorov et al
Protocol: (§1) Differences in the melting temperature (ΔTm) were measured as described by Fedorov et al.. Purified proteins were buffered in 25 mM HEPES (pH 7.5), 500 mM NaCl and were assayed in a 384-well plate with a final protein concentration of 2 μM in 10 μL assay volume. Inhibitors were added to a final concentration of 10 μM using an ECHO 550 acoustic dispenser (Labcyte, San José, CA, USA). As a fluorescence probe, SYPRO-Orange (Molecular Probes, Eugene, OR, USA) was added in a 1:5000 dilution. Filters for excitation and emission were set to 465 nm and 590 nm, respectively. The temperature was increased from 25 °C with 3 °C/min to a final temperature of 95 °C, while scanning, using the QuantStudio5 (Applied Biosystems, Waltham, MA, USA). Data were analyzed through Boltzmann equation in the Protein Thermal Shift software (Applied Biosystems, Waltham, MA, USA). Samples were measured in technical duplicates.

[2] = molecular target: T2, DCAMKL1 (Homo sapiens, UniProt O15075); conditions: DCAMKL1; inhibitor 10 μM, protein 2 μM; read-out: ΔTm
T2 construct: purchased in-house DSF (thermal shift) panel per Fedorov et al
Protocol: as §1

[3] = molecular target: T3, CAMK4 (Homo sapiens, UniProt Q16566); conditions: CAMK4; inhibitor 10 μM, protein 2 μM; read-out: ΔTm
T3 construct: purchased in-house DSF (thermal shift) panel per Fedorov et al
Protocol: as §1

[4] = molecular target: T4, EPHB3 (Homo sapiens, UniProt P54753); conditions: EPHB3; inhibitor 10 μM, protein 2 μM; read-out: ΔTm
T4 construct: purchased in-house DSF (thermal shift) panel per Fedorov et al
Protocol: as §1

[5] = molecular target: T5, SLK (Homo sapiens, UniProt Q9H2G2); conditions: SLK; inhibitor 10 μM, protein 2 μM; read-out: ΔTm
T5 construct: purchased in-house DSF (thermal shift) panel per Fedorov et al
Protocol: as §1

[6] = molecular target: T6, RPS6K5 (Homo sapiens, UniProt O75582); conditions: RPS6K5; inhibitor 10 μM, protein 2 μM; read-out: ΔTm
T6 construct: purchased in-house DSF (thermal shift) panel per Fedorov et al
Protocol: as §1

[7] = molecular target: T7, NEK2 (Homo sapiens, UniProt P51955); conditions: NEK2; inhibitor 10 μM, protein 2 μM; read-out: ΔTm
T7 construct: purchased in-house DSF (thermal shift) panel per Fedorov et al
Protocol: as §1

[8] = molecular target: T8, PLK4 (Homo sapiens, UniProt O00444); conditions: PLK4; inhibitor 10 μM, protein 2 μM; read-out: ΔTm
T8 construct: purchased in-house DSF (thermal shift) panel per Fedorov et al
Protocol: as §1

[9] = molecular target: T9, PAK1 (Homo sapiens, UniProt Q13153); conditions: PAK1; inhibitor 10 μM, protein 2 μM; read-out: ΔTm
T9 construct: purchased in-house DSF (thermal shift) panel per Fedorov et al
Protocol: as §1

[10] = molecular target: T10, AKT3 (Homo sapiens, UniProt Q9Y243); conditions: inhibitor 10 μM, protein 2 μM
T10 construct: purchased in-house DSF (thermal shift) panel per Fedorov et al
Protocol: as §1, with “Filters for excitation and emission were set to 465 nm and 590 nm, respectively. The temperature was increased from 25 °C with 3 °C/min to a final temperature of 95 °C, while scanning, using the QuantStudio5 (Applied Biosystems, Waltham, MA, USA).” left out

[11] = molecular target: T11, MAPK14 (Homo sapiens, UniProt Q16539); conditions: inhibitor 10 μM, protein 2 μM
T11 construct: purchased in-house DSF (thermal shift) panel per Fedorov et al
Protocol: as §1, with “Filters for excitation and emission were set to 465 nm and 590 nm, respectively. The temperature was increased from 25 °C with 3 °C/min to a final temperature of 95 °C, while scanning, using the QuantStudio5 (Applied Biosystems, Waltham, MA, USA).” left out

[12] = molecular target: T12, FGFR1 (Homo sapiens, UniProt P11362); conditions: inhibitor 10 μM, protein 2 μM
T12 construct: purchased in-house DSF (thermal shift) panel per Fedorov et al; IC50 follow-up at Reaction Biology Corp
Protocol: as §1, with “Filters for excitation and emission were set to 465 nm and 590 nm, respectively. The temperature was increased from 25 °C with 3 °C/min to a final temperature of 95 °C, while scanning, using the QuantStudio5 (Applied Biosystems, Waltham, MA, USA).” left out

[13] = molecular target: T13, DYRK2 (Homo sapiens, UniProt Q92630); conditions: inhibitor 10 μM, protein 2 μM
T13 construct: purchased in-house DSF (thermal shift) panel per Fedorov et al
Protocol: as §1, with “Filters for excitation and emission were set to 465 nm and 590 nm, respectively. The temperature was increased from 25 °C with 3 °C/min to a final temperature of 95 °C, while scanning, using the QuantStudio5 (Applied Biosystems, Waltham, MA, USA).” left out

[14] = molecular target: T14, PKMYT1 (Homo sapiens, UniProt Q99640); conditions: inhibitor 10 μM, protein 2 μM
T14 construct: purchased in-house DSF (thermal shift) panel per Fedorov et al; IC50 follow-up at Reaction Biology Corp
Protocol: as §1, with “Filters for excitation and emission were set to 465 nm and 590 nm, respectively. The temperature was increased from 25 °C with 3 °C/min to a final temperature of 95 °C, while scanning, using the QuantStudio5 (Applied Biosystems, Waltham, MA, USA).” left out

[15] = molecular target: T15, RIOK2 (Homo sapiens, UniProt Q9BVS4); conditions: inhibitor 10 μM, protein 2 μM
T15 construct: purchased in-house DSF (thermal shift) panel per Fedorov et al; IC50 follow-up at Reaction Biology Corp
Protocol: as §1, with “Filters for excitation and emission were set to 465 nm and 590 nm, respectively. The temperature was increased from 25 °C with 3 °C/min to a final temperature of 95 °C, while scanning, using the QuantStudio5 (Applied Biosystems, Waltham, MA, USA).” left out

T14 sequence (Q99640 whole entry): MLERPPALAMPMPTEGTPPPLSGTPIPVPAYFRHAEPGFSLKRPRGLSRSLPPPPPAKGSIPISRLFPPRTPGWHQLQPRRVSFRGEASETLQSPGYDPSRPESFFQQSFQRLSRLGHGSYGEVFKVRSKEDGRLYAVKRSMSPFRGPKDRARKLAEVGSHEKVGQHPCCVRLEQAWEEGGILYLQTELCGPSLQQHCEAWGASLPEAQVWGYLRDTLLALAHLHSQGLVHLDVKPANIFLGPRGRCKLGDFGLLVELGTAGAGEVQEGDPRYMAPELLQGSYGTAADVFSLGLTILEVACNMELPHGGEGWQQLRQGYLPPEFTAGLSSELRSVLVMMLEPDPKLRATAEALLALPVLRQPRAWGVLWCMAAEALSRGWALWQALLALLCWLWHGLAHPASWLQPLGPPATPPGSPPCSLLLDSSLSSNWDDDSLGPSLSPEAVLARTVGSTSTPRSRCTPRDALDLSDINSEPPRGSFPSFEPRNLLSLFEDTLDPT
T1 sequence (O94804 whole entry): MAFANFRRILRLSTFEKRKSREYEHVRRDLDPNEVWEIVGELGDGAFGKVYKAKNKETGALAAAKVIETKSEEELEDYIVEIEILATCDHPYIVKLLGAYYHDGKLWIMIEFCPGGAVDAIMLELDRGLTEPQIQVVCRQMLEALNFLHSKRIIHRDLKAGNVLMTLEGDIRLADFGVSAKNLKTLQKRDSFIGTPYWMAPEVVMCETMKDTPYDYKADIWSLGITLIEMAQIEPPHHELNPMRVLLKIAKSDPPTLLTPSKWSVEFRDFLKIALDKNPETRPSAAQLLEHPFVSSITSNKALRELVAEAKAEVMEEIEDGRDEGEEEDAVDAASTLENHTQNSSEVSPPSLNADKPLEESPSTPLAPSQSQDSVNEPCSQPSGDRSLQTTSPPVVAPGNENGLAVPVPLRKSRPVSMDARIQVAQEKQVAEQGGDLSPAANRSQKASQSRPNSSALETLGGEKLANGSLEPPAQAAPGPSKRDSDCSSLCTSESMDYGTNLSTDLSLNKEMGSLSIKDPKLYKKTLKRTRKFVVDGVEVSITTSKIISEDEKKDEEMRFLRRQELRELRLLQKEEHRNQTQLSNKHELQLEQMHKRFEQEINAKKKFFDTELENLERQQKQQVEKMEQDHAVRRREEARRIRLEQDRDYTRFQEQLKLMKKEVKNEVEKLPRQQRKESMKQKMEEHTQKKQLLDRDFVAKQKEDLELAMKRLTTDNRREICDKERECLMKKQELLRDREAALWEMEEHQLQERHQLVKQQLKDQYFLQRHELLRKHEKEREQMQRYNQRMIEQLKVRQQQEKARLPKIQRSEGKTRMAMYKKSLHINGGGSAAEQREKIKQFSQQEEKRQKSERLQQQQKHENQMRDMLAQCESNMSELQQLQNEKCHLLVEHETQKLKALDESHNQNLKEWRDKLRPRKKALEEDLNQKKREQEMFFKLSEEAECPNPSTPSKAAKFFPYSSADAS
T2 sequence (O15075 whole entry): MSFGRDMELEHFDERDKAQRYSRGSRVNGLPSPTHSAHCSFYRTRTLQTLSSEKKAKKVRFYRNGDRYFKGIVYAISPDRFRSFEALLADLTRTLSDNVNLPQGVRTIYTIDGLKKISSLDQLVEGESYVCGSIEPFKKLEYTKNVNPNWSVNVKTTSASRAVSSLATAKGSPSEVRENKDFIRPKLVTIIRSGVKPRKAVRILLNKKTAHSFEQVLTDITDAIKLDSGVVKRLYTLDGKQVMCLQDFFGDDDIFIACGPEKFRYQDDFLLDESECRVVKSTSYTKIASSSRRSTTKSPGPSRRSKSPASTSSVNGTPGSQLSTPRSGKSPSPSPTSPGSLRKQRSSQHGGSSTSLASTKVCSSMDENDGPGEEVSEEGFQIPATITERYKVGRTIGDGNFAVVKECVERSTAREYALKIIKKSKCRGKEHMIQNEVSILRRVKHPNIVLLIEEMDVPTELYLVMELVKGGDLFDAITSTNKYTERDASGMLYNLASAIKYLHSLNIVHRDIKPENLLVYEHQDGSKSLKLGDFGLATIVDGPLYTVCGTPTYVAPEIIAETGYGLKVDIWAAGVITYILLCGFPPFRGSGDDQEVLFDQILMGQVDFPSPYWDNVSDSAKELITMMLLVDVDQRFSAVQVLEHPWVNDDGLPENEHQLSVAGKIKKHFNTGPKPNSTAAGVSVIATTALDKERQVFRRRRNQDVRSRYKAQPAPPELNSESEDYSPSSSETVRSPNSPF
T7 sequence (P51955 whole entry): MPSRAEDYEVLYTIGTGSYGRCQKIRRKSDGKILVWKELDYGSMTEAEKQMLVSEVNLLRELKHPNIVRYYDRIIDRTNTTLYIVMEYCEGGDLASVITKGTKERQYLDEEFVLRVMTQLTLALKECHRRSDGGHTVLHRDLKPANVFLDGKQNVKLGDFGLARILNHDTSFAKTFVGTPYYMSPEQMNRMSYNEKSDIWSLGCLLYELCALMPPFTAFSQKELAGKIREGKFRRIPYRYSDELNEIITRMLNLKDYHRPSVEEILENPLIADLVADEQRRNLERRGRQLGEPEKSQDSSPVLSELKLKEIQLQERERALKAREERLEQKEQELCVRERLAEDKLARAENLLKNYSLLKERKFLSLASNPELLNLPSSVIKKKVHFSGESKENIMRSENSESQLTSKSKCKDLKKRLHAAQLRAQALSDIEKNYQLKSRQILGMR
T15 sequence (Q9BVS4 whole entry): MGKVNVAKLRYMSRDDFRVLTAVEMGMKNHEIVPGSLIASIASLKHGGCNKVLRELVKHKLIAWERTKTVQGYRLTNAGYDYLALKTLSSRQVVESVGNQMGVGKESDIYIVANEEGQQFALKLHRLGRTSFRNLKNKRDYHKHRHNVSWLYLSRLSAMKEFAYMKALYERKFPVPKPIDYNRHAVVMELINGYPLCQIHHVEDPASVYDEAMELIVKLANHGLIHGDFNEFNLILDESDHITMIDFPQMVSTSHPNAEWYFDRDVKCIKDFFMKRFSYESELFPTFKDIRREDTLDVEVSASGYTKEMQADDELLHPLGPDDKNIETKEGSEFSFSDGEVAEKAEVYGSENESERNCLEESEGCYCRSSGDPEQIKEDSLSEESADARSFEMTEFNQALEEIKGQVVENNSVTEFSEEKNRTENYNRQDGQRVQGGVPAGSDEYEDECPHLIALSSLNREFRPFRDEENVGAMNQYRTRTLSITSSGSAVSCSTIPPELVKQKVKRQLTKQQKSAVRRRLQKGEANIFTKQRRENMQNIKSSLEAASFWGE
T12 sequence (P11362 22-822): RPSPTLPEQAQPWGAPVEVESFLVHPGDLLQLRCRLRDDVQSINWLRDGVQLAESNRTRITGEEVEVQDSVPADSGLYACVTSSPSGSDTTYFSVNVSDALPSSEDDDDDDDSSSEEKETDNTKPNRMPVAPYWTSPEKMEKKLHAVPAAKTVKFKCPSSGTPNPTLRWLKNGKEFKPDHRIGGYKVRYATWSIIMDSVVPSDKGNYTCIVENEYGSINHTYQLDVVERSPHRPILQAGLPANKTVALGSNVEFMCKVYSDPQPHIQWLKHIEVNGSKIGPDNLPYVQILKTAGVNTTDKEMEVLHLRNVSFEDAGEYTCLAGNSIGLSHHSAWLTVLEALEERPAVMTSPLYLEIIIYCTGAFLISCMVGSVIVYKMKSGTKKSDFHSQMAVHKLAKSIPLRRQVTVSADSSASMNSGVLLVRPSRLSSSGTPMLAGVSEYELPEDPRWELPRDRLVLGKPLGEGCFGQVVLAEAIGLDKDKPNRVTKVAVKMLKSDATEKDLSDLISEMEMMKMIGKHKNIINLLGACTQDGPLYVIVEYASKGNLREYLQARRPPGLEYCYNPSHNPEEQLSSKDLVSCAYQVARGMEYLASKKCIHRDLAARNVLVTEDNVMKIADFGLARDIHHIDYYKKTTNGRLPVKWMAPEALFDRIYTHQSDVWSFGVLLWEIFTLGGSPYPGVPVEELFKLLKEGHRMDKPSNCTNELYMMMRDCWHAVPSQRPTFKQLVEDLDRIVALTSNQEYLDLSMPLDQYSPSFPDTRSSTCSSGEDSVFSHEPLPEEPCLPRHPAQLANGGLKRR
T11 sequence (Q16539 whole entry): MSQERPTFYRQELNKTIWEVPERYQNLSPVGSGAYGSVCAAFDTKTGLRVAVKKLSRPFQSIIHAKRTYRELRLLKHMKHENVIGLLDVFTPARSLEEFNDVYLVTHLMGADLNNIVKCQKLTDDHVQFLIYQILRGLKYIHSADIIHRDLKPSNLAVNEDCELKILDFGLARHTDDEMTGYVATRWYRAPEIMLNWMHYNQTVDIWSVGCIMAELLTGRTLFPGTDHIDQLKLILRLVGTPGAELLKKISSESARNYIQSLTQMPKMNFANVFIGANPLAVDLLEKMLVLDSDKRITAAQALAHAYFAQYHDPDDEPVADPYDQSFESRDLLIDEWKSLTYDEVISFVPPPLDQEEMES
T10 sequence (Q9Y243 whole entry): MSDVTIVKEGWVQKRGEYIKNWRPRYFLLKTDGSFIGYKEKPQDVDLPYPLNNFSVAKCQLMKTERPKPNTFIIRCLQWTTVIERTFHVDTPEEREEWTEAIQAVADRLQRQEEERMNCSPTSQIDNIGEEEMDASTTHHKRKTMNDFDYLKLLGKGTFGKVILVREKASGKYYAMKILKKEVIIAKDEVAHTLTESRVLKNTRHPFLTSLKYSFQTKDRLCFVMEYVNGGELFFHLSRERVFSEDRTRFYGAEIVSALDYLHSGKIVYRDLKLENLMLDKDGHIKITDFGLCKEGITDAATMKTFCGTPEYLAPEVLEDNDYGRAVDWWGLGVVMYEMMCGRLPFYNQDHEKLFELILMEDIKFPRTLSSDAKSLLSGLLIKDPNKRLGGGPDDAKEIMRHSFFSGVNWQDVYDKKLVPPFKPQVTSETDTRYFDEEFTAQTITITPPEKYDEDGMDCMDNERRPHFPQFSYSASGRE

`CCc1cnc(Nc2nc(Cl)ccc2[N+](=O)[O-])nc1N1CCN(Cc2nc3cc(C(F)(F)F)ccc3[nH]2)CC1` [Compound 2] showed a ΔTm at 10 µM [1] of 1.8 °C, a ΔTm at 10 µM [2] of 0.2 °C and a ΔTm at 10 µM [3] of 0.1 °C. It also gave a ΔTm at 10 µM [4] of -0.9 °C, a ΔTm at 10 µM [5] of 1.9 °C and a ΔTm at 10 µM [6] of 1.5 °C. It also gave a ΔTm at 10 µM [7] of 0.1 °C, a ΔTm at 10 µM [8] of 0.2 °C and a ΔTm at 10 µM [9] of -0.5 °C. The ΔTm at 10 µM [10] was 0.2 °C, the ΔTm at 10 µM [11] was -0.5 °C and the ΔTm at 10 µM [12] was 0.4 °C. The ΔTm at 10 µM [13] was 0.1 °C, the ΔTm at 10 µM [14] was -1 °C and the ΔTm at 10 µM [15] was -0.8 °C.
